Tests used:
[1] = molecular target: T1, Lipoxidase from Glycine max (15- LOX) (Glycine max, UniProt P08170); test: Michaelis–Menten enzyme kinetics (Lineweaver-Burk); type: biochemical; details: for IC50: Cheng–Prusoff from Ki; for Ki: linoleic acid substrate, competitive
T1 construct: purchased Sigma (Sigma-Aldrich, UK)
T1 sequence (P08170 1-839): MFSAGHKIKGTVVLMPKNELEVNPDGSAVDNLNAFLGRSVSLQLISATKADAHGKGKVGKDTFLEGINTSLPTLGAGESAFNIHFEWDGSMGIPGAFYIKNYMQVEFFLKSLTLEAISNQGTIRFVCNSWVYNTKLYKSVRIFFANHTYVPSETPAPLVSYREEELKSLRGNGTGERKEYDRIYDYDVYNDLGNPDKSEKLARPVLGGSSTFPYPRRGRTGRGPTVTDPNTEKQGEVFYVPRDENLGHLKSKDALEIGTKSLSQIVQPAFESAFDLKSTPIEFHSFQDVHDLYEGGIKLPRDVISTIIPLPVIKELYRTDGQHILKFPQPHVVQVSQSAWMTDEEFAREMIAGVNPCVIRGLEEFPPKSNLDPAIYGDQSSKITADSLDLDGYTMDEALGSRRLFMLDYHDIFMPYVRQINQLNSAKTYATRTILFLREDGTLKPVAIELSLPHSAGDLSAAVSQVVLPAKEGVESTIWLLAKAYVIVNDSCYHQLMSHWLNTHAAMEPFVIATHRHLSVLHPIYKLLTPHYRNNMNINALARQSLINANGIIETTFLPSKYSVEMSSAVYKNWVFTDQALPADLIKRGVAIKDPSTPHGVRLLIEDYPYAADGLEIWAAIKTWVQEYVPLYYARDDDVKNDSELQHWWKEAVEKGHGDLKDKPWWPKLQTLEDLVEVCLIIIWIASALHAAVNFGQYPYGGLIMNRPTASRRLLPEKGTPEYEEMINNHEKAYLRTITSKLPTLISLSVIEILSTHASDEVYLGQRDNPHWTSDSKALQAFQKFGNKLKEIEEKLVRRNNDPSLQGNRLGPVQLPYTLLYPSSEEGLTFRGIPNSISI
Method: To identify the mode of inhibition, enzyme kinetics assay was performed with MGSDs. For the kinetic analysis different substrate concentrations of 18, 27, 36, 45, 54, 63 µM were prepared in 0.2 mM borate buffer (H 9)[16]. The assay mixture was made of 50 µL of LOX, 50 µL of the test solution and different concentrations of the substrate. The final volume was made upto 2 mL with corresponding borate buffer quantity. The activity of LOX was measured by the formation of […], which was monitored at 234 nm on spectrophotometer, (HITACHI U 2900, Japan). The reaction was measured at a time span of 300 s. The same experiment was repeated in the presence of 0.1, 0.08 and 0.06 μM concentration of MGSDs. The Line Weaver-Burk plot was constructed and Michaelis–Menten constant (Km) and Maximal Velocity (Vmax) were determined from the plot. From the Km and Vmax obtained, the inhibitor constant, Ki was calculated using the following equation derived from the Michaelis–Menten Equation: Km′=Km1+I0/Ki. The IC50was calculated using the Cheng–Prusoff equation, Ki=IC50/1+S/Km.

[2] = molecular target: T1, Lipoxidase from Glycine max (15- LOX); test: In-vitro LOX enzyme inhibition assay (spectrophotometric, 234 nm); type: biochemical; details: 20 μM compound
Method: The LOX inhibition assays were performed with MGSDs. The inhibitory activity was measured by a modified spectrophotometric method[16],[39]. The plant LOX pathway is in many respects equivalent to the ‘arachidonic acid cascades’ in animals. For this reason, the in vitro inhibition of LOX constitutes a good model for the screening of compounds with anti-inflammatory potential[40],[41]. LOX (Lipoxidase from Glycine max (15- LOX); EC 1.13.11.12) type I-B (Soybean), and linoleic acid were purchased from Sigma (Sigma-Aldrich, UK) and used without further purification. Enzyme solution of 1.03 µM was prepared in 0.2 mM borate buffer, pH 8.5. The substrate, linoleic acid solution of 0.3 mM was also prepared in the borate buffer at the same pH. […] The final concentration of MGSDs used for the analysis was 20 µM. The assay mixture was made of 50 µL of LOX, 50 µL of the test solution and 360 µL of the substrate. The final volume was made up to 2 mL with corresponding borate buffer quantity. The activity of LOX was measured on the formation of […], which was monitored at 234 nm on spectrophotometer, (HITACHI U 2900, Japan). The same procedure was repeated with triplicate for the confirmation of LOX inhibitory activity[16],[39].

LOX = molecular target: T2, LOX (Glycine max, UniProt P08170); test: Fluorescence quenching studies; type: binding; details: 296 K, pH 9; for Kd: read-out: Binding constant (K) (converted); for Quenching constant (Ksv): Stern–Volmer
T2 construct: purchased Sigma (Sigma-Aldrich, UK)
T2 sequence (P08170 1-839): T1 sequence (P08170 1-839)
Source text: To analyze the type of mechanism, the data of fluorescence of LOX was plotted, as relative fluorescence intensity (F0/F), against MGSDs. Here F and F0 are the fluorescence intensity in the presence and absence of MGSDs respectively. The Stern–Volmer constants were obtained from the plot by linear regression using the expression: F0/F=1+KsvQ.
Ksv is the Stern–Volmer constant and [Q] is the respective concentration of derivatives. Ksv which depicts the binding affinity between the fluorophore (protein) and quencher (ligand), were obtained from the slopes of the plot (Supplementary Fig. 15). […] The Fluorescence quenching data provided information about the binding constant (K), the number of binding sites (n), and the values could be arrived by applying the equation. Log F0-F/F=log K+nlogQ.
The Fluoromax-4 spectrophotometer (Spectra-NanoLED source 278) was used for studying fluorescence quenching of the compound. Bandwidth set at 5 nm for both excitation and emission spectra. The wavelength was set for excitation at 280 nm and the emission was recorded at 290–450 nm using 1.0 cm cell at 296 K temperature. The LOX with a concentration of 7 μM, dissolved in borate buffer at pH 9 and ligands at the concentrations of 35, 70, 105, 140, 175, 210, 245 and 280 μM were used for the experiment.

FCA-induced arthritis [3] = test: FCA-induced arthritis: hind paw volume; type: in vivo, Sprague–Dawley (SD) rats; details: FCA rats, 10 mg.kg^−1 oral
Method: (§1) Chronic inflammation induced by Freund's Complete Adjuvant contains a suspension of heat-killed Mycobacterium tuberculosis in the vehicle (Chondrex, Labex Corporation). 100 μL of FCA (10 mg/mL) was injected intradermally to the left-hand paw of SD rats[42]. […] Induction of inflammation became chronic by 9–12 days and then rats were divided into 7 groups having 6 rats in each group. Everything possible was done to minimize the suffering of experimental animals. Minimum number of rats only were drafted to generate reliable data. 42 rats were randomly allocated into seven groups (6 × 7).
(§2) Group I (n = 6) served as normal rats that received an equal volume of vehicle control. Group II (n = 6) was arthritic model control treated with vehicle only. Group III (n = 6) was arthritic control which received the diclofenac (10 mg.kg^–1). Groups IV (n = 6), V (n = 6), VI (n = 6) and VII (n = 6) were treated with a low and high dose of methyl gallate (20 mg.kg^–1, 40 mg.kg^–1) and MGSD 1 (1 mg.kg^–1, 10 mg.kg^–1). The drugs were orally administered through oral gavage daily in PBS vehicle for 28 days.
By a plethysmometer the rat hind paw volume was measured from the initial day to final day (28th day) with successive intervals of 9 days, before and after FCA injection. The inhibition was calculated by the formula given below. Percentageinhibition=1-Meanchangesinpawvolumeoftreatedrat/Meanchangesinpawvolumeofuntreatedrat×100.

FCA-induced arthritis [4] = details: FCA rats, serum, 10 mg.kg^−1 oral
Method: as §1, §2
(§3) Blood was drawn from jugular vein[43] and collected in heparinized tubes and used for further analysis. By using Horiba 5-part hematology analyzer the blood parameters like RBC, WBC, neutrophil and hemoglobin were analyzed. Serum parameters were analyzed using Stat Fax autoanalyzer. Serum glutamic pyruvic transaminase (SGPT), serum glutamic oxaloacetic transaminase (SGOT) and alkaline phosphatase (ALP) were determined using standard diagnostic kits (Proton, Accurex).

FCA-induced arthritis [5] = test: FCA-induced arthritis: organ index (liver, spleen); type: in vivo, Sprague–Dawley (SD) rats; details: FCA rats, 10 mg.kg^−1 oral, end of experiment
Method: as §1, §2
At the end of the experiments, animals were euthanized using ketamine injection. The liver and spleen were removed at the end of the experiment and weighed. The index of the organs was expressed as the percentage (%) wet weight of organ versus body weight. The organ indexes were calculated by using the following formula Organindex=Weightoforgang/Bodyweightg×100.

[6] = FCA-induced arthritis: body weight measurement; type: in vivo, Sprague–Dawley (SD) rats; details: FCA rats, 10 mg.kg^−1 oral
Method: as §1, §2
The bodyweight of the animals was measured every day after the commencement of the experiment till the end (28th day). The weight change was calculated using the formula: Weightchange%=Wt-Wo/[…], where Wt is the weight of the animal at time t
Wo is the weight of the animal on the initial day.

[7] = test system: ankle joints, liver, spleen, and thymus; test: FCA-induced arthritis: histological analysis; type: in vivo, Sprague–Dawley (SD) rats; details: FCA rats
Method: The animals used for the FCA induced arthritis were euthanized at the end of the experiment and the ankle joints were separated from the hind paw and fixed in 10% buffered formalin. Similarly, liver, spleen, and thymus were also dissected carefully and immersed in fixative, and after 24 h each specimen were decalcified in 5% nitric acid, followed by embedding in paraffin wax and 4 µm thickness sections were prepared. These prepared sections were then mounted and stained with hematoxylin and[…] under brightfield compound binocular research microscope at 100X and 400X magnification and inflammation was graded.

FCA-induced arthritis [8] = test: FCA-induced arthritis: haematological parameters; type: in vivo, Sprague–Dawley (SD) rats; details: FCA rats, 10 mg.kg^−1 oral
Method: as §1, §2, §3

## O=C(O)COc1cc(C(=O)O)cc(O)c1O [MGSD 3, (3-(carboxymethoxy)-4,5-dihydroxybenzoic acid]
[1]; abstract
  IC50: 226 nM
[1]
  Ki: 60 nM
[2]
  inhibition at 20 µM: 65 ± 2.65%
LOX
  Kd: 485000 nM
  Quenching constant (Ksv): 7800 M⁻¹

## O=C(O)Cc1ccccc1Nc1c(Cl)cccc1Cl [Diclofenac]
FCA-induced arthritis [3]
  Percentage of inhibition (paw oedema): 59%
FCA-induced arthritis [3]; 9th day
  Paw volume (mL) (mean ± SEM) 9th day: 1.44 ± 0.16 mL
FCA-induced arthritis [3]; 18th day
  Paw volume (mL) (mean ± SEM) 18th day: 0.8 ± 0.22 mL
FCA-induced arthritis [3]; 28th day
  Paw volume (mL) (mean ± SEM) 28th day: 0.73 ± 0.08 mL
FCA-induced arthritis [3]; initial day
  Paw volume (mL) (mean ± SEM) Initial day: 0.56 ± 0.05 mL
FCA-induced arthritis [3]; listed as diclofenac
  Percentage of inhibition (paw oedema): 59%
FCA-induced arthritis [4]
  SGOT: 210 ± 1.73 IU/L
  SGPT: 91 ± 1.20 IU/L
FCA-induced arthritis [5]
  Organ index (%) Liver: 3.18 ± 0.11%
  Organ index (%) Spleen: 0.21 ± 0.01%
[6]; 9th day
  Percentage of body weight (Mean ± SEM) 9th day: 9.9 ± 0.07%
[6]; 18th day
  Percentage of body weight (Mean ± SEM) 18th day: 36.55 ± 1.10%
[6]; 28th day
  Percentage of body weight (Mean ± SEM) 28th day: 41.52 ± 1.36%
[7]; 10 mg.kg^-1
  Histology of ankle joints: synovial joint was seen free of infiltration and oedema
[7]; dose not stated
  Histology of liver: hepatocyte arrays and central sinusoid area were seen to regain normalcy and a few necrotic cells were still visible
  Histology of spleen: periarteriolar lymphoid sheath regained normalcy
[7]; methyl gallate high dose
  Histology of thymus: reduction in the number of neutrophils
FCA-induced arthritis [8]
  Hb: 14.3 ± 0.4 g/dL
  Lymphocyte: 73.2 ± 1.64%
  Neutro phil: 11.5 ± 0.15%
  RBC: 7.92 ± 0.18^# 10^6/mm^3
  WBC: 9.25 ± 0.10^# 10^3/mm^3

## O=C(O)COc1cc(C(=O)O)cc(O)c1OCC(=O)O [MGSD 2, 2,2′-((5-carboxy-3-hydroxy-1,2-phenylene)bis (oxy))diacetic acid]
[1]
  IC50: 340 nM
  Ki: 100 nM
[2]
  inhibition at 20 µM: 68 ± 4.32%
LOX
  Kd: 439000 nM
  Quenching constant (Ksv): 6300 M⁻¹
